Data reported in ChEMBL document CHEMBL1201862, “PubChem BioAssay data set” (2004).
Activity calls are given as the source filed them.

Key:
[1] = Luminescence Cell-Based Dose Response to Identify Activators of Luciferase Translation or Activity in H4-C Neuroglioblastoma Cells. [Related pubchem assays: 1829 (Project Summary), 1814 (Primary HTS)]; assay type: functional
[2] = biological target: Intestinal-type alkaline phosphatase (Mus musculus, UniProt P24822); test: PubChem AID 488785; assay type: functional
Chain of Intestinal-type alkaline phosphatase (Mus musculus, UniProt P24822) (P24822 whole entry): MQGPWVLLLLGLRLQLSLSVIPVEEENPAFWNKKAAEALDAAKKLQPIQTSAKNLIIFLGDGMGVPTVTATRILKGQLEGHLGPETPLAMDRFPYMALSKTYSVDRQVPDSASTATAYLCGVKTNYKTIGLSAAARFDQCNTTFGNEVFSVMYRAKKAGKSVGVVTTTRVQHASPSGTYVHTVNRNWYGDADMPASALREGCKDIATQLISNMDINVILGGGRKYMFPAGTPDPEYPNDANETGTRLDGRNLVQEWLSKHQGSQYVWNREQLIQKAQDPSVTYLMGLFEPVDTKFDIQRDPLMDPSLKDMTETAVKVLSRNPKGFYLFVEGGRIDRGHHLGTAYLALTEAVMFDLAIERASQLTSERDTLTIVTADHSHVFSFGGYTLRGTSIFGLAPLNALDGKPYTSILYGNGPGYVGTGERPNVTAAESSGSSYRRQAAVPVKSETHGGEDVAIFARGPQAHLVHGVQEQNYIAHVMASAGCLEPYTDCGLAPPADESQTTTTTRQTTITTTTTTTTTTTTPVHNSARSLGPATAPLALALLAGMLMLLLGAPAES

[3] = system: H4; test: Luminescence Cell-Based Dose Response HTS to Identify Activators of 5'UTR Stem-Loop Driven Prion Protein mRNA Translation in H4 Neuroglioblastoma Cells. [Related pubchem assays: 1829 (Project Summary), 1814 (Primary HTS)]; assay type: functional; details: Homo sapiens
[4] = Luminescence Cell-Based Dose Response to Identify Activators of 5'UTR Stem-Loop Driven Prion Protein mRNA Translation in H4-C Neuroglioblastoma Cells. [Related pubchem assays: 1829 (Project Summary), 1814 (Primary HTS)]; assay type: functional
[5] = Luminescence Cell-Based Dose Confirmation to Identify Activators of 5'UTR Stem-Loop Driven Alpha-Synuclein mRNA Translation in H4 Neuroglioblastoma Cells. [Related pubchem assays: 1829 (Project Summary), 1814 (Primary HTS)]; assay type: functional
[6] = biological target: Intestinal-type alkaline phosphatase (Homo sapiens, UniProt P09923); test: inhibition of human intestinal alkaline phosphatase – biochemical, dose response (AID 488876); assay type: functional
Chain of Intestinal-type alkaline phosphatase (Homo sapiens, UniProt P09923) (P09923 whole entry): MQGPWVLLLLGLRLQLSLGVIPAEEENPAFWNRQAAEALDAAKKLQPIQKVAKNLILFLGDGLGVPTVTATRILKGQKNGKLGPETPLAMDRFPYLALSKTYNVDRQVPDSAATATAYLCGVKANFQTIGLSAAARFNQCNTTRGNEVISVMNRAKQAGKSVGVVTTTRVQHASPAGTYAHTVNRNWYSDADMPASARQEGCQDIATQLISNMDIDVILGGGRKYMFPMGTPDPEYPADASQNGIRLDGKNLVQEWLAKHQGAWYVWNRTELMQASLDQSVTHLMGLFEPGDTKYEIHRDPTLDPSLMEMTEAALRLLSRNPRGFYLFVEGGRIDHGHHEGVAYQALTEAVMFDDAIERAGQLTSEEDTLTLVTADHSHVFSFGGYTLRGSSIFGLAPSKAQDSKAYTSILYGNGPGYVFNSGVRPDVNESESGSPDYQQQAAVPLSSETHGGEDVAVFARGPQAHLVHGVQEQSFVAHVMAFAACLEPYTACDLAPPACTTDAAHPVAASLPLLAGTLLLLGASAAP

[7] = Luminescence Cell-Based Dose Response HTS to Identify Activators of Luciferase Translation or Activity in H4 […] Cells. [Related pubchem assays: 1829 (Project Summary), 1814 (Primary HTS)]; assay type: functional
[8] = biological target: T1, Alkaline phosphatase, tissue-nonspecific isozyme (Homo sapiens, UniProt P05186); test: TNAP enzyme inhibition by screening hits, dose response, selectivity assay for mouse IAP inhibitor project, biochemical, human TNAP, uHTS hits (AID 488906); assay type: functional
T1 sequence (P05186 whole entry): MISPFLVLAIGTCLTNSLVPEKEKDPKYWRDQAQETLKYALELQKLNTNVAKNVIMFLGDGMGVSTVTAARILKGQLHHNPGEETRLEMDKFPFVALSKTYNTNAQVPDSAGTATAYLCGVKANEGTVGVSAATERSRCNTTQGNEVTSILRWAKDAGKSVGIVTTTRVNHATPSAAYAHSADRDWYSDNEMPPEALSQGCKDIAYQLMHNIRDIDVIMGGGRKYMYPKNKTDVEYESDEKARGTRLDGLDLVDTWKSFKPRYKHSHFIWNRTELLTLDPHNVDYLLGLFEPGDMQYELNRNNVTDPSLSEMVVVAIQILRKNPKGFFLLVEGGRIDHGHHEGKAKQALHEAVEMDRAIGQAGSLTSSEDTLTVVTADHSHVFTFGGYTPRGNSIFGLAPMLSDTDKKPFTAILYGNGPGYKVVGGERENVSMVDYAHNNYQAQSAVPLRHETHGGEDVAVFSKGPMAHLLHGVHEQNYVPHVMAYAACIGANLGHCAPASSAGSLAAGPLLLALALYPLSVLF

[9] = biological target: Mitogen-activated protein kinase 10 (Homo sapiens, UniProt P53779); test: Dose response biochemical screening assay for inhibitors of c-Jun N-Terminal Kinase 3 (JNK3). [Related pubchem assays: 746 ]
Chain of Mitogen-activated protein kinase 10 (P53779 whole entry): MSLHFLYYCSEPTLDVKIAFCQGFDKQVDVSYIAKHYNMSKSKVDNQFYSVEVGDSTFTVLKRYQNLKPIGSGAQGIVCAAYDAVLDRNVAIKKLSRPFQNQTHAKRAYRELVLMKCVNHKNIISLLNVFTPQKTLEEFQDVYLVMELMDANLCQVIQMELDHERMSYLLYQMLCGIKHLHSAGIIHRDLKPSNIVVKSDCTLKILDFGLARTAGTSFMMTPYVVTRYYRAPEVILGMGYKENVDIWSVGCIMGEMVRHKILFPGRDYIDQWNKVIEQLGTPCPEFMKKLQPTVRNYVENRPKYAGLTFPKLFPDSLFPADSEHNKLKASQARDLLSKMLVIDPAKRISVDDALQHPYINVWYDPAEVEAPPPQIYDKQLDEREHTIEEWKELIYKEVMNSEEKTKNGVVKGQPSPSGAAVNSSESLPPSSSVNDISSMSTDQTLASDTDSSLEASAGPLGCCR

[10] = system: INS1; test: beta cell apoptosis inhibitors, cytokine rescue, dose response, luminescence, retest (AID 449756); assay type: functional, cell-based; details: Rattus norvegicus;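 also: cell death triggered by IL-1 beta plus TNF-alpha plus IFN-gamma mixture; protective hits raise ATP signal compared with cytokine alone wells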
[11] = microbe, parasite or virus in culture; assay type: functional; details: Mycobacterium tuberculosis
[12] = Luminescence Cell-Based Dose Retest to Confirm Inhibitors of Cancer Stem Cells. [Related pubchem assays (depositor defined):AID2717, AID2721]; assay type: functional; details: Homo sapiens
[13] = biological target: T2, Ubiquitin-conjugating enzyme E2 N (Homo sapiens, UniProt P61088); assay type: functional
T2 sequence (P61088 whole entry): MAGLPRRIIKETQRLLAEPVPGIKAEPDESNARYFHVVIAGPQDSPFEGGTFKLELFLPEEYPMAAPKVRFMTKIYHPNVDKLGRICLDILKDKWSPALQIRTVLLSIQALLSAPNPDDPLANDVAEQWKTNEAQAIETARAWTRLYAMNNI

[14] = biological target: T3, Bcl-2-related protein A1 (Mus musculus, UniProt Q07440); assay type: functional;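 also: confirmatory dose–response counterscreen on Bfl-1, used to check hits from a UBC13 polyubiquitin inhibitor campaign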
T3 sequence (Q07440 whole entry): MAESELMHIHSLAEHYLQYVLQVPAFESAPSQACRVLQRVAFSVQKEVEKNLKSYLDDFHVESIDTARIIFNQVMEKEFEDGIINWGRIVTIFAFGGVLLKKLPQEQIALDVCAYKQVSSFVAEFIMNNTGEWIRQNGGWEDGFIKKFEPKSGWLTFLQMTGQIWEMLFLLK

[15] = biological target: T2, Ubiquitin-conjugating enzyme E2 N; assay type: functional; remark: listed apart in the source
[16] = biological target: T4, Kappa-type opioid receptor (Homo sapiens, UniProt P41145); test: SAR analysis of small molecule agonists of the kappa opioid receptor via a luminescent beta-arrestin assay - Set 3. [Related pubchem assays (depositor defined):AID1777, AID1785, AID1786, AID1966, AID2133, AID2136, AID2284, AID2500]; assay type: functional
T4 sequence (P41145 whole entry): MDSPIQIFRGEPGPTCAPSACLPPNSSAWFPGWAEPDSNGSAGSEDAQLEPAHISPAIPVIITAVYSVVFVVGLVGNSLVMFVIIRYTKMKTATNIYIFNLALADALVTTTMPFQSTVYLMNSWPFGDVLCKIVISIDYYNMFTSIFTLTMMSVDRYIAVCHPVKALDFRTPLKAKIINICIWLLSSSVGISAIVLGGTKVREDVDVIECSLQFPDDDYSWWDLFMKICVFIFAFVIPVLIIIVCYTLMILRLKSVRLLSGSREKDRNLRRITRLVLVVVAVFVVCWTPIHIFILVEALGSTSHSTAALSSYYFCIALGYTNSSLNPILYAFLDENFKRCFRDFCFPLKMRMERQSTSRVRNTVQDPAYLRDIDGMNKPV

[17] = biological target: T4, Kappa-type opioid receptor; test: KOR agonist analogs, arrestin-GFP redistribution, SAR follow-up, imaging, image-based, set 3 (AID 488833); assay type: functional
[18] = biological target: Mu-type opioid receptor (Homo sapiens, UniProt P35372); test: SAR Analysis of Agonists of the MOR Receptor using an Image-Based Assay - Set 3. [Related pubchem assays (depositor defined):AID1777, AID1785, AID1786, AID1966, AID2133, AID2136, AID2284, AID2285, AID2352]; assay type: functional
Chain of Mu-type opioid receptor (P35372 whole entry): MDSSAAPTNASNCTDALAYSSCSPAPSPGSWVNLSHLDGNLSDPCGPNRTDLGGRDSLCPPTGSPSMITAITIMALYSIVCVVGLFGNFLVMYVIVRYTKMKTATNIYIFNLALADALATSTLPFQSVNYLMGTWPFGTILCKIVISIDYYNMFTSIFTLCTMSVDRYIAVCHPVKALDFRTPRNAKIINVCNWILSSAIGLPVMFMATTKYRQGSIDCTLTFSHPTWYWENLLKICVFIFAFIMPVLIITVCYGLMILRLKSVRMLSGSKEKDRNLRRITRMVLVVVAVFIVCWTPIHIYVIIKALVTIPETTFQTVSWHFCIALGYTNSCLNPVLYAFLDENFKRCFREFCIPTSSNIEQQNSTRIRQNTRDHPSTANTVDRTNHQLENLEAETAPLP

[19] = biological target: Delta-type opioid receptor (Homo sapiens, UniProt P41143); test: SAR Analysis of Agonists of the DOR Receptor using an Image-Based Assay - Set 3. [Related pubchem assays (depositor defined):AID1777, AID1786]; assay type: functional
Chain of Delta-type opioid receptor (P41143 whole entry): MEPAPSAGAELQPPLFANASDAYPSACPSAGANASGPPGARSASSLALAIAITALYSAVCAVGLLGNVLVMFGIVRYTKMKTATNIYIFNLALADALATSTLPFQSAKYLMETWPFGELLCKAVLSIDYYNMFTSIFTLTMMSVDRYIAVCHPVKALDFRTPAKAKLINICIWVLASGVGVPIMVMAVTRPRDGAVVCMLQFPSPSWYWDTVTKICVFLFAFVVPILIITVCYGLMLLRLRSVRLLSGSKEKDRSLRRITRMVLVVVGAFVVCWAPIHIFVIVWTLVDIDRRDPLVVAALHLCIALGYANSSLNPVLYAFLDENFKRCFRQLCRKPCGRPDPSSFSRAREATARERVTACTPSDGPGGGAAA

OCCCN1c2ccccc2Nc2nnc(-c3ccccc3)cc21
EC50 [1]: > 12 µM (not active) | IC50 [2]: 10.3 µM (active) | EC50 [3]: 1.97 µM (active) | EC50 [4]: 0.549 µM (active) | EC50 [5]: 0.424 µM (active) | IC50 [6]: > 100 µM (inactive) | EC50 [7]: < 0.1 µM (inconclusive) | IC50 [8]: > 100 µM (inactive) | IC50 [9]: > 31 µM (not active)

COc1ccc2cc1Oc1ccc(cc1)C[C@H]1c3c(cc(OC)c4c3Oc3c(ccc5c3[C@H](C2)N(C)CC5)O4)CCN1C
AC50 [10]: 8.02 µM (active) | CC50 [11]: 6.25 µM (active) | AC50 [12]: 3.56 µM (active) | IC50 [13]: 12.2 µM (active) | IC50 [14]: > 20 µM (inactive) | IC50 [15]: 16 µM (active)

FC(F)(F)c1cc(CSc2nnc(-c3ccccn3)n2Cc2ccco2)ccc1Cl
EC50 [16]: 0.504 µM (active) | EC50 [17]: 0.456 µM (active) | EC50 [18]: > 32 µM (inactive) | EC50 [19]: > 64 µM (inactive)
